{"source": "paper PMC4740573", "about": "(Clinical Drug Investigation, 2015)", "key": {"[1]": {"system": "activated partial thromboplastin time", "test": "Activated partial thromboplastin time", "assay_type": "in vivo, human", "settings": "for LS mean aPTT at 2 h after dosing: ANCOVA; for Activated partial thromboplastin time A max / Activated partial thromboplastin time A min / Activated partial thromboplastin time AUEτ: mean ± SD; for Activated partial thromboplastin time T max: median (minimum, maximum)"}, "[2]": {"settings": "cited from earlier work"}, "[3]": {"test": "Plasma pharmacokinetics in healthy subjects", "settings": "for T max: median (minimum, maximum); for AUC: AUCτ, 24 h dosing interval; for Cmax: C max, healthy subjects"}, "Safety assessment": {"test": "Safety assessment", "assay_type": "in vivo, human", "settings": "healthy adult subjects"}, "thrombin generation": {"system": "thrombin generation", "test": "Technothrombin thrombin generation assay", "assay_type": "in vivo, human", "settings": "for Endogenous thrombin potential A max / Endogenous thrombin potential A min / Lag time A max / Lag time A min / Peak thrombin A max / Peak thrombin A min / Time to peak A max / Time to peak A min / Velocity A max / Velocity A min: mean ± SD"}, "[4]": {"settings": "day 4, edoxaban after switching from dabigatran etexilate (treatment 3)"}, "[5]": {"settings": "day 4, edoxaban after switching from rivaroxaban (treatment 2)"}, "[6]": {"settings": "day 4, edoxaban alone (treatment 1)"}, "[7]": {"settings": "edoxaban after switching from dabigatran etexilate, day 4 (treatment 3)"}, "[8]": {"settings": "edoxaban after switching from rivaroxaban, day 4 (treatment 2)"}, "[9]": {"settings": "edoxaban alone, day 1 (treatment 1)"}, "[10]": {"settings": "edoxaban alone, day 4 (treatment 1)"}}}
{"smiles": "CN1CCc2nc(C(=O)N[C@@H]3C[C@@H](C(=O)N(C)C)CC[C@@H]3NC(=O)C(=O)Nc3ccc(Cl)cn3)sc2C1", "note": "[Edoxaban, edoxaban]", "values": [{"measurement": "LS mean aPTT at 2 h after dosing", "setting": "[1]; day 4, after switching from dabigatran etexilate to edoxaban (treatment 3)", "value": 47.6, "unit": "s"}, {"measurement": "Activated partial thromboplastin time A max", "setting": "[1]; [4]", "value": "50.8 ± 8.92", "unit": "s"}, {"measurement": "Activated partial thromboplastin time A min", "setting": "[1]; [4]", "value": "30.0 ± 2.20", "unit": "s"}, {"measurement": "Activated partial thromboplastin time AUEτ", "setting": "[1]; [4]", "value": "863 ± 87.3", "unit": "s·h"}, {"measurement": "Activated partial thromboplastin time T max", "setting": "[1]; [4]", "value": "1.00 (0.50, 3.00) h"}, {"measurement": "Activated partial thromboplastin time A max", "setting": "[1]; [5]", "value": "36.5 ± 3.94", "unit": "s"}, {"measurement": "Activated partial thromboplastin time A min", "setting": "[1]; [5]", "value": "28.4 ± 2.13", "unit": "s"}, {"measurement": "Activated partial thromboplastin time AUEτ", "setting": "[1]; [5]", "value": "738 ± 58.6", "unit": "s·h"}, {"measurement": "Activated partial thromboplastin time T max", "setting": "[1]; [5]", "value": "1.00 (0.50, 4.00) h"}, {"measurement": "LS mean aPTT at 2 h after dosing", "setting": "[1]; [6]", "value": 35.0, "unit": "s"}, {"measurement": "Activated partial thromboplastin time A max", "setting": "[1]; [6]", "value": "35.9 ± 3.15", "unit": "s"}, {"measurement": "Activated partial thromboplastin time A min", "setting": "[1]; [6]", "value": "27.7 ± 1.70", "unit": "s"}, {"measurement": "Activated partial thromboplastin time AUEτ", "setting": "[1]; [6]", "value": "725 ± 48.8", "unit": "s·h"}, {"measurement": "Activated partial thromboplastin time T max", "setting": "[1]; [6]", "value": "1.50 (0.50, 4.00) h"}, {"measurement": "time to peak effect on aPTT", "setting": "[1]; edoxaban alone (treatment 1), return to baseline by 24 h", "value": "1 to 2", "unit": "h"}, {"measurement": "oral bioavailability", "setting": "[2]", "value": "approximately 62%"}, {"measurement": "terminal elimination half-life", "setting": "[2]", "value": "10 to 14", "unit": "h"}, {"measurement": "time to peak plasma concentration and peak antithrombotic effect", "setting": "[2]; oral", "value": "1 to 2", "unit": "h"}, {"measurement": "T max", "setting": "[3]; edoxaban day 4 after switching from dabigatran etexilate (treatment 3)", "value": "1.00 (0.50, 3.00) h"}, {"measurement": "T max", "setting": "[3]; edoxaban day 4 after switching from rivaroxaban (treatment 2)", "value": "1.00 (0.50, 2.00) h"}, {"measurement": "Tmax", "setting": "[3]; human, in vivo, 60 mg", "value": 1, "unit": "h"}, {"measurement": "AUC", "setting": "[3]; human, in vivo, 60 mg, edoxaban alone, day 1 (treatment 1), mean ± SD", "value": "1780 ± 319", "unit": "ng·h/mL"}, {"measurement": "AUC", "setting": "[3]; human, in vivo, 60 mg, edoxaban alone, day 4 (treatment 1), mean ± SD", "value": "1990 ± 403", "unit": "ng·h/mL"}, {"measurement": "AUC", "setting": "[3]; human, in vivo, 60 mg, edoxaban day 4 after switching from dabigatran etexilate (treatment 3), mean ± SD", "value": "1680 ± 475", "unit": "ng·h/mL"}, {"measurement": "AUC", "setting": "[3]; human, in vivo, 60 mg, edoxaban day 4 after switching from rivaroxaban (treatment 2), mean ± SD", "value": "1740 ± 353", "unit": "ng·h/mL"}, {"measurement": "Cmax", "setting": "[3]; human, in vivo, 60 mg, edoxaban 60 mg on day 4 after switching from dabigatran etexilate 150 mg twice daily for 3 days (treatment 3), mean ± SD", "value": "280 ± 124", "unit": "ng/mL"}, {"measurement": "Cmax", "setting": "[3]; human, in vivo, 60 mg, edoxaban 60 mg on day 4 after switching from rivaroxaban 20 mg once daily for 3 days (treatment 2), mean ± SD", "value": "288 ± 113", "unit": "ng/mL"}, {"measurement": "Cmax", "setting": "[3]; human, in vivo, 60 mg, edoxaban 60 mg once daily alone, day 1 (treatment 1), mean ± SD", "value": "309 ± 97.2", "unit": "ng/mL"}, {"measurement": "Cmax", "setting": "[3]; human, in vivo, 60 mg, edoxaban 60 mg once daily alone, day 4 (treatment 1), mean ± SD", "value": "303 ± 87.7", "unit": "ng/mL"}, {"measurement": "concentration at 1 day", "setting": "[3]; human, in vivo, 60 mg, C trough, edoxaban alone, day 1 (treatment 1), mean ± SD", "value": "14 ± 5.44", "unit": "ng/mL"}, {"measurement": "concentration at 4 day", "setting": "[3]; human, in vivo, 60 mg, C trough, edoxaban alone, day 4 (treatment 1), mean ± SD", "value": "15.5 ± 3.98", "unit": "ng/mL"}, {"measurement": "concentration at 4 day", "setting": "[3]; human, in vivo, 60 mg, C trough, edoxaban day 4 after switching from dabigatran etexilate (treatment 3), mean ± SD", "value": "12.8 ± 4.13", "unit": "ng/mL"}, {"measurement": "concentration at 4 day", "setting": "[3]; human, in vivo, 60 mg, C trough, edoxaban day 4 after switching from rivaroxaban (treatment 2), mean ± SD", "value": "13.4 ± 5", "unit": "ng/mL"}, {"measurement": "tolerability", "setting": "Safety assessment", "value": "well tolerated"}, {"measurement": "ETP Amax", "setting": "thrombin generation; day 4, continual edoxaban treatment (treatment 1)", "value": "3644 ± 434", "unit": "mN·min"}, {"measurement": "Endogenous thrombin potential A max", "setting": "thrombin generation; [7]", "value": "3338 ± 575", "unit": "nM·min"}, {"measurement": "Endogenous thrombin potential A min", "setting": "thrombin generation; [7]", "value": "1239 ± 828", "unit": "nM·min"}, {"measurement": "Lag time A max", "setting": "thrombin generation; [7]", "value": "55.3 ± 16.2", "unit": "min"}, {"measurement": "Lag time A min", "setting": "thrombin generation; [7]", "value": "20.5 ± 3.60", "unit": "min"}, {"measurement": "Peak thrombin A max", "setting": "thrombin generation; [7]", "value": "302 ± 77.0", "unit": "nM"}, {"measurement": "Peak thrombin A min", "setting": "thrombin generation; [7]", "value": "48.9 ± 25.2", "unit": "nM"}, {"measurement": "Time to peak A max", "setting": "thrombin generation; [7]", "value": "74.0 ± 12.4", "unit": "min"}, {"measurement": "Time to peak A min", "setting": "thrombin generation; [7]", "value": "27.5 ± 7.94", "unit": "min"}, {"measurement": "Velocity A max", "setting": "thrombin generation; [7]", "value": "46.5 ± 25.7", "unit": "nM/min"}, {"measurement": "Velocity A min", "setting": "thrombin generation; [7]", "value": "2.13 ± 1.35", "unit": "nM/min"}, {"measurement": "Endogenous thrombin potential A max", "setting": "thrombin generation; [8]", "value": "3680 ± 462", "unit": "nM·min"}, {"measurement": "Endogenous thrombin potential A min", "setting": "thrombin generation; [8]", "value": "1506 ± 798", "unit": "nM·min"}, {"measurement": "Lag time A max", "setting": "thrombin generation; [8]", "value": "39.9 ± 9.96", "unit": "min"}, {"measurement": "Lag time A min", "setting": "thrombin generation; [8]", "value": "15.8 ± 3.54", "unit": "min"}, {"measurement": "Peak thrombin A max", "setting": "thrombin generation; [8]", "value": "324 ± 123", "unit": "nM"}, {"measurement": "Peak thrombin A min", "setting": "thrombin generation; [8]", "value": "49.2 ± 31.9", "unit": "nM"}, {"measurement": "Time to peak A max", "setting": "thrombin generation; [8]", "value": "59.4 ± 14.6", "unit": "min"}, {"measurement": "Time to peak A min", "setting": "thrombin generation; [8]", "value": "22.0 ± 5.15", "unit": "min"}, {"measurement": "Velocity A max", "setting": "thrombin generation; [8]", "value": "67.4 ± 46.6", "unit": "nM/min"}, {"measurement": "Velocity A min", "setting": "thrombin generation; [8]", "value": "3.04 ± 2.88", "unit": "nM/min"}, {"measurement": "Endogenous thrombin potential A max", "setting": "thrombin generation; [9]", "value": "3635 ± 432", "unit": "nM·min"}, {"measurement": "Endogenous thrombin potential A min", "setting": "thrombin generation; [9]", "value": "1520 ± 754", "unit": "nM·min"}, {"measurement": "Lag time A max", "setting": "thrombin generation; [9]", "value": "38.3 ± 8.59", "unit": "min"}, {"measurement": "Lag time A min", "setting": "thrombin generation; [9]", "value": "15.8 ± 2.25", "unit": "min"}, {"measurement": "Peak thrombin A max", "setting": "thrombin generation; [9]", "value": "323 ± 98.1", "unit": "nM"}, {"measurement": "Peak thrombin A min", "setting": "thrombin generation; [9]", "value": "45.7 ± 25.5", "unit": "nM"}, {"measurement": "Time to peak A max", "setting": "thrombin generation; [9]", "value": "58.6 ± 12.6", "unit": "min"}, {"measurement": "Time to peak A min", "setting": "thrombin generation; [9]", "value": "22.2 ± 4.13", "unit": "min"}, {"measurement": "Velocity A max", "setting": "thrombin generation; [9]", "value": "61.4 ± 31.3", "unit": "nM/min"}, {"measurement": "Velocity A min", "setting": "thrombin generation; [9]", "value": "2.62 ± 1.92", "unit": "nM/min"}, {"measurement": "Endogenous thrombin potential A max", "setting": "thrombin generation; [10]", "value": "3644 ± 434", "unit": "nM·min"}, {"measurement": "Endogenous thrombin potential A min", "setting": "thrombin generation; [10]", "value": "1474 ± 755", "unit": "nM·min"}, {"measurement": "Lag time A max", "setting": "thrombin generation; [10]", "value": "37.8 ± 7.09", "unit": "min"}, {"measurement": "Lag time A min", "setting": "thrombin generation; [10]", "value": "16.9 ± 2.41", "unit": "min"}, {"measurement": "Peak thrombin A max", "setting": "thrombin generation; [10]", "value": "315 ± 90.6", "unit": "nM"}, {"measurement": "Peak thrombin A min", "setting": "thrombin generation; [10]", "value": "43.4 ± 25.1", "unit": "nM"}, {"measurement": "Time to peak A max", "setting": "thrombin generation; [10]", "value": "58.5 ± 12.2", "unit": "min"}, {"measurement": "Time to peak A min", "setting": "thrombin generation; [10]", "value": "23.7 ± 4.29", "unit": "min"}, {"measurement": "Velocity A max", "setting": "thrombin generation; [10]", "value": "58.4 ± 31.9", "unit": "nM/min"}, {"measurement": "Velocity A min", "setting": "thrombin generation; [10]", "value": "2.40 ± 1.89", "unit": "nM/min"}]}
{"smiles": "CCCCCCOC(=O)NC(=N)c1ccc(NCc2nc3cc(C(=O)N(CCC(=O)OCC)c4ccccn4)ccc3n2C)cc1", "note": "[dabigatran etexilate]", "values": [{"measurement": "tolerability", "setting": "Safety assessment", "value": "well tolerated"}]}
{"smiles": "O=C(NC[C@H]1CN(c2ccc(N3CCOCC3=O)cc2)C(=O)O1)c1ccc(Cl)s1", "note": "[rivaroxaban]", "values": [{"measurement": "tolerability", "setting": "Safety assessment", "value": "well tolerated"}]}
